Activity calls are given as the source filed them. The rule behind the calls is not given here.
Test system: CCRIS mutagenicity, Ames/micronucleus/aberration tests
Assay: CCRIS mutagenicity studies
[1] = Test System: AMES SALMONELLA TYPHIMURIUM, Strain/Indicator: TA98, Metabolic Activation: NONE, Method: PREINCUBATION
[2] = Test System: AMES SALMONELLA TYPHIMURIUM, Strain/Indicator: TA100, Metabolic Activation: NONE, Method: PREINCUBATION

SMILES: C/C=C/C
- mutagenic call (Test System: AMES SALMONELLA TYPHIMURIUM, Strain/Indicator: TA98, Metabolic Activation: NONE, Method: GAS EXPOSURE): inactive; negative
- mutagenic call (Test System: AMES SALMONELLA TYPHIMURIUM, Strain/Indicator: TA98, Metabolic Activation: RAT LIVER S-9, PHENOBARBITAL AND BETA-NAPHTHOFLAVONE (40%), Method: GAS EXPOSURE): inactive; negative
- mutagenic call (Test System: AMES SALMONELLA TYPHIMURIUM, Strain/Indicator: TA100, Metabolic Activation: NONE, Method: GAS EXPOSURE): inactive; negative
- mutagenic call (Test System: AMES SALMONELLA TYPHIMURIUM, Strain/Indicator: TA100, Metabolic Activation: RAT LIVER S-9, PHENOBARBITAL AND BETA-NAPHTHOFLAVONE (40%), Method: GAS EXPOSURE): inactive; negative
- mutagenic call (Test System: AMES SALMONELLA TYPHIMURIUM, Strain/Indicator: TA1535, Metabolic Activation: NONE, Method: GAS EXPOSURE): inactive; negative
- mutagenic call (Test System: AMES SALMONELLA TYPHIMURIUM, Strain/Indicator: TA1535, Metabolic Activation: RAT LIVER S-9, PHENOBARBITAL AND BETA-NAPHTHOFLAVONE (40%), Method: GAS EXPOSURE): inactive; negative
- mutagenic call (Test System: AMES SALMONELLA TYPHIMURIUM, Strain/Indicator: TA1537, Metabolic Activation: NONE, Method: GAS EXPOSURE): inactive; negative
- mutagenic call (Test System: AMES SALMONELLA TYPHIMURIUM, Strain/Indicator: TA1537, Metabolic Activation: RAT LIVER S-9, PHENOBARBITAL AND BETA-NAPHTHOFLAVONE (40%), Method: GAS EXPOSURE): inactive; negative
- mutagenic call (Test System: E.COLI, Strain/Indicator: WP2UVRA, Metabolic Activation: NONE, Method: GAS EXPOSURE): inactive; negative
- mutagenic call (Test System: E.COLI, Strain/Indicator: WP2UVRA, Metabolic Activation: RAT LIVER S-9, PHENOBARBITAL AND BETA-NAPHTHOFLAVONE (40%), Method: GAS EXPOSURE): inactive; negative

SMILES: Nc1ncnc2c1nc(-c1ccc([N+](=O)[O-])cc1)n2-c1ccc([N+](=O)[O-])cc1
- mutagenic call (Test System: AMES SALMONELLA TYPHIMURIUM, Strain/Indicator: TA98(1,8-DNP), Metabolic Activation: NONE, Method: PREINCUBATION): active; positive
- mutagenic call (Test System: AMES SALMONELLA TYPHIMURIUM, Strain/Indicator: TA98(1,8-DNP), Metabolic Activation: RAT, LIVER, S-9, PCB, Method: PREINCUBATION): active; positive
- mutagenic call (Test System: AMES SALMONELLA TYPHIMURIUM, Strain/Indicator: TA98(NR), Metabolic Activation: NONE, Method: PREINCUBATION): active; positive
- mutagenic call (Test System: AMES SALMONELLA TYPHIMURIUM, Strain/Indicator: TA98(NR), Metabolic Activation: RAT, LIVER, S-9, PCB, Method: PREINCUBATION): active; positive
- mutagenic call [1]: active; positive
- mutagenic call (Test System: AMES SALMONELLA TYPHIMURIUM, Strain/Indicator: TA98, Metabolic Activation: RAT, LIVER, S-9, PCB, Method: PREINCUBATION): active; positive
- mutagenic call (Test System: AMES SALMONELLA TYPHIMURIUM, Strain/Indicator: TA100(1,8-DNP), Metabolic Activation: NONE, Method: PREINCUBATION): inactive; negative
- mutagenic call (Test System: AMES SALMONELLA TYPHIMURIUM, Strain/Indicator: TA100(1,8-DNP), Metabolic Activation: RAT, LIVER, S-9, PCB, Method: PREINCUBATION): inactive; negative
- mutagenic call (Test System: AMES SALMONELLA TYPHIMURIUM, Strain/Indicator: TA100(NR), Metabolic Activation: NONE, Method: PREINCUBATION): inactive; negative
- mutagenic call (Test System: AMES SALMONELLA TYPHIMURIUM, Strain/Indicator: TA100(NR), Metabolic Activation: RAT, LIVER, S-9, PCB, Method: PREINCUBATION): inactive; negative
- mutagenic call [2]: active; positive
- mutagenic call (Test System: AMES SALMONELLA TYPHIMURIUM, Strain/Indicator: TA100, Metabolic Activation: RAT, LIVER, S-9, PCB, Method: PREINCUBATION): active; positive
- mutagenic call (Test System: AMES SALMONELLA TYPHIMURIUM, Strain/Indicator: YG1020, Metabolic Activation: NONE, Method: PREINCUBATION): active; positive
- mutagenic call (Test System: AMES SALMONELLA TYPHIMURIUM, Strain/Indicator: YG1020, Metabolic Activation: RAT, LIVER, S-9, PCB, Method: PREINCUBATION): active; positive
- mutagenic call (Test System: AMES SALMONELLA TYPHIMURIUM, Strain/Indicator: YG1021, Metabolic Activation: NONE, Method: PREINCUBATION): active; positive
- mutagenic call (Test System: AMES SALMONELLA TYPHIMURIUM, Strain/Indicator: YG1021, Metabolic Activation: RAT, LIVER, S-9, PCB, Method: PREINCUBATION): active; positive
- mutagenic call (Test System: AMES SALMONELLA TYPHIMURIUM, Strain/Indicator: YG1024, Metabolic Activation: NONE, Method: PREINCUBATION): active; positive
- mutagenic call (Test System: AMES SALMONELLA TYPHIMURIUM, Strain/Indicator: YG1024, Metabolic Activation: RAT, LIVER, S-9, PCB, Method: PREINCUBATION): active; positive
- mutagenic call (Test System: AMES SALMONELLA TYPHIMURIUM, Strain/Indicator: YG1025, Metabolic Activation: NONE, Method: PREINCUBATION): active; positive
- mutagenic call (Test System: AMES SALMONELLA TYPHIMURIUM, Strain/Indicator: YG1025, Metabolic Activation: RAT, LIVER, S-9, PCB, Method: PREINCUBATION): active; positive
- mutagenic call (Test System: AMES SALMONELLA TYPHIMURIUM, Strain/Indicator: YG1026, Metabolic Activation: NONE, Method: PREINCUBATION): active; positive
- mutagenic call (Test System: AMES SALMONELLA TYPHIMURIUM, Strain/Indicator: YG1026, Metabolic Activation: RAT, LIVER, S-9, PCB, Method: PREINCUBATION): active; positive
- mutagenic call (Test System: AMES SALMONELLA TYPHIMURIUM, Strain/Indicator: YG1029, Metabolic Activation: NONE, Method: PREINCUBATION): active; positive
- mutagenic call (Test System: AMES SALMONELLA TYPHIMURIUM, Strain/Indicator: YG1029, Metabolic Activation: RAT, LIVER, S-9, PCB, Method: PREINCUBATION): active; positive

SMILES: Nc1nc(F)nc2c1ncn2[C@@H]1O[C@H](CO)[C@@H](O)[C@@H]1O
- mutagenic call (Test System: CHINESE HAMSTER OVARY, Strain/Indicator: CHO/6-THIOGUANINE, Metabolic Activation: NONE): active; positive

SMILES: O=C(O)c1cc(Cl)cc(Cl)c1
- mutagenic call [1]: inactive; negative
- mutagenic call (Test System: AMES SALMONELLA TYPHIMURIUM, Strain/Indicator: TA98, Metabolic Activation: RAT LIVER S-9, PCB, Method: PREINCUBATION): inactive; negative
- mutagenic call [2]: inactive; negative
- mutagenic call (Test System: AMES SALMONELLA TYPHIMURIUM, Strain/Indicator: TA100, Metabolic Activation: RAT LIVER S-9, PCB, Method: PREINCUBATION): inactive; negative
- mutagenic call (Test System: AMES SALMONELLA TYPHIMURIUM, Strain/Indicator: TA104, Metabolic Activation: NONE, Method: PREINCUBATION): inactive; negative
- mutagenic call (Test System: AMES SALMONELLA TYPHIMURIUM, Strain/Indicator: TA104, Metabolic Activation: RAT LIVER S-9, PCB, Method: PREINCUBATION): inactive; negative
- mutagenic call (Test System: E.COLI, Strain/Indicator: WP2 UVRA, Metabolic Activation: NONE, Method: PREINCUBATION): inactive; negative
- mutagenic call (Test System: E.COLI, Strain/Indicator: WP2 UVRA, Metabolic Activation: RAT LIVER S-9, PCB, Method: PREINCUBATION): inactive; negative

SMILES: Cc1cc(O)c2c(c1O)C(=O)c1c(-c3ccc(O)c4c3C(=O)c3c(O)c(C)cc(O)c3C4=O)ccc(O)c1C2=O
- mutagenic call (Test System: UDS RODENT HEPATOCYTES, Strain/Indicator: THY INCORP, Metabolic Activation: NONE, Method: AUTORADIOGRAPHY): inactive; negative

SMILES: CC(C)OC(=O)C=Cc1ccc([N+](=O)[O-])o1
- mutagenic call [1]: active; positive

SMILES: CCc1nc(N)nc(N)c1-c1ccc(Cl)cc1
- mutagenic call (End Point: IN VITRO CHROMOSOMAL ABERRATIONS, Test System: HUMAN LYMPHOCYTES, Metabolic Activation: NONE): active; positive
- mutagenic call (End Point: IN VITRO MICRONUCLEUS, Test System: HAMSTER V79 CELLS, Metabolic Activation: NONE): inactive; negative
- mutagenic call (End Point: In vivo chromosomal aberrations, Species: Mouse, Strain/Sex: Swiss/Male, Route: Intraperitoneal): active; positive (at highest dose only)
- mutagenic call (End Point: In vivo chromosomal aberrations, Test System: Bone marrow cells, Species: Mouse, Strain/Sex: Swiss/Male, Route: Intraperitoneal): active; positive (chromatid breaks and acentric fragments)
- mutagenic call (End Point: In vivo chromosomal aberrations, Test System: Spermatocytes, Species: Mouse, Strain/Sex: Swiss/Male, Route: Intraperitoneal): active; positive (at highest dose only)
- mutagenic call (Test System: E.COLI, Strain/Indicator: WP2UVRA/PKM101, Metabolic Activation: NONE, Method: PREINCUBATION): inactive; negative
- mutagenic call (Test System: E.COLI, Strain/Indicator: WP2UVRA/PKM101, Metabolic Activation: RAT LIVER S-9, PHENOBARBITAL AND 5,6-BENZOFLAVONE, Method: PREINCUBATION): inactive; negative

SMILES: CCOC(=O)NO
- mutagenic call (Test System: AMES SALMONELLA TYPHIMURIUM, Strain/Indicator: TA98, Metabolic Activation: RAT, LIVER, S-9, KC500 OR PHENOBARBITAL, Method: LIQUID SUSPENSION): active; positive
- mutagenic call (Test System: E. COLI, Strain/Indicator: WP2 UVRA, Metabolic Activation: NONE, Method: FLUCTUATION TEST): active; positive

Reference: PubChem BioAssay AID1259407 (Chemical Carcinogenesis Research Information System (CCRIS), 2018)
